Measurements published in EP4737449A1 (Changchun Genescience Pharmaceutical Co., Ltd., priority 2023, dated 2025).

Columns and labels:
p53-Y220C mutant protein = target: T1, p53-Y220C mutant protein (Homo sapiens, UniProt P04637, Y220C); experiment: In vitro DNA binding activity assay (TR-FRET); assay type: biochemical; conditions: concentration required to increase the binding activity of protein to DNA by 50%
T1 construct: The recombinant Y220C p53 DBD protein with his-tag
In short: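 His-tagged Y220C p53 DBD was equilibrated with compound 60 min at room temperature, then biotin-DNA, anti-6His-Eu and streptavidin-d2 were added and incubated overnight in the dark. TR-FRET 665/615 nm ratio, background-corrected, was expressed as % activity versus vehicle; SC150 is the concentration raising DNA binding by 50%.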

[1] = target: CYP 3A4 enzyme in human liver microsomes (Homo sapiens, UniProt P08684); experiment: CYP3A4 inhibition experiment in human liver microsomes
Sequence of CYP 3A4 enzyme in human liver microsomes (P08684 whole entry): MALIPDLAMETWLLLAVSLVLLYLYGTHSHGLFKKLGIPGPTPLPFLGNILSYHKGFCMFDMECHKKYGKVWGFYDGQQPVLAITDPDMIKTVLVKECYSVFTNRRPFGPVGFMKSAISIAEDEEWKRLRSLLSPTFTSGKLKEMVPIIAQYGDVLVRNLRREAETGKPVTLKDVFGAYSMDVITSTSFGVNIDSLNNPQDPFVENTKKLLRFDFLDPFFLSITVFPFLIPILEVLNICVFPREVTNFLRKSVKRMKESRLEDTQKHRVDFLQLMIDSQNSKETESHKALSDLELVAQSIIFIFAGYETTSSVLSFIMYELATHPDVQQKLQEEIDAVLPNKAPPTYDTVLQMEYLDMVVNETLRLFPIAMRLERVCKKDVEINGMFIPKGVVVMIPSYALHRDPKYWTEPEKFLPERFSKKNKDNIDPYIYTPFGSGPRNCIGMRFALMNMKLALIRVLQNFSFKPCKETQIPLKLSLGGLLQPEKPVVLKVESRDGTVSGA
Description: The inhibitory effects of the test compounds on CYP 3A4T (with testosterone as substrate) and 3A4M (with midazolam as substrate) in human liver microsomes were evaluated in vitro to assess the medication safety of the compounds.
This study used the human liver microsome system and the cytochrome P450 enzyme probe substrate recommended by FDA guidelines for in vitro drug interaction studies to investigate the inhibition of the CYP 3A4 enzyme in human liver microsomes by the test compounds.
Test group (TG): Human liver microsomes were incubated with different concentrations of test compounds, NADPH (final concentration 2.00 mM) and probe substrates of different sub-enzymes (Table 4) for 5 min.
Positive control group (PC): Human liver microsomes were incubated with inhibitors (Table 4), NADPH (final concentration 2.00 mM) and probe substrates of different sub-enzymes (Table 4) for 5 min. Table 4 Probe substrates of sub-enzymes, inhibitors and incubation systems
The system was pre-incubated at 37°C for 5 min, and then 15 µL of 8 mM NADPH solution preheated at 37°C for 5-10 min to start the reaction. After incubation of the 96-well plate at 37°C for 5 min, 180 µL of acetonitrile:methanol (ACN:MeOH=1:1) solution containing internal standard (IS) was added to terminate the reaction. […] 80 µL of the supernatant was taken, added to 120 µL of ultrapure water, shaken evenly, and then detected by LC-MS/MS.
199 µL of 0.2 mg/mL HLM and 1 µL of 1 mM positive control inhibitor (ketoconazole) working solutions were taken and mixed evenly. 30 µL of the drug-containing liver microsome solution was taken and added to a 96-well plate, then 10 µL of substrate working solution (20 µM midazolam) was added, in duplicate. The system was pre-incubated at 37°C for 5 min, and then 15 µL of 8 mM NADPH solution preheated at 37°C for 5-10 min to start the reaction. After incubation of the 96-well plate at 37°C for 5 min, 180 µL of ACN:MeOH(1:1) solution containing IS was added to terminate the reaction. […] 80 µL of the supernatant was taken, added to 120 µL of ultrapure water, shaken evenly, and then detected by LC-MS/MS.
4.2.5.1 The relative activity of CYP450 sub-enzymes at different concentrations was calculated by dividing the peak area ratio (analyte peak area/internal standard peak area) of metabolites in the presence of the test sample or positive control by the peak area ratio of metabolites in the solvent control sample in the absence of the test article or positive control, according to the following formula: [formula] [formula]
4.2.5.2 Half maximal inhibitory concentration (IC50) was obtained by fitting according to the following model formula using Prism software: Y = Bottom + (Top−Bottom)/(1+10^(∧)((LogIC50−X)×HillSlope)) [formula]
X is the test sample concentration converted to logarithm (Log µM), Y is the relative activity (% of NC), Bottom and Top represent the percentage of enzyme activity at the bottom platform and top platform of the curve, respectively, and HillSlope represents the slope; to optimize the fitting effect, the use of other (nonlinear) dose-response models for fitting is not considered as a deviation from the protocol.

[2] = CYP 3A4M IC50, human liver microsomes, midazolam as substrate
[3] = CYP 3A4T IC50, human liver microsomes, testosterone as substrate

| Compound | SC150 (p53-Y220C mutant protein) | IC50 [1, 2] | IC50 [1, 3] |
| --- | --- | --- | --- |
| CN1CC[C@@H](Nc2cccc3c(CC(F)(F)F)c(C#CCNC(=O)c4cnn(C(C)(C)C)c4)nn23)[C@@H](F)C1 [Compound 001, 1-tert-butyl-N-[3-(7-{[(3S,4R)-3-fluoro-1-methylpiperidin-4-yl]amino}-3-(2,2,2-trifluoroethyl)pyrazolo[1,5-a]pyridin-2-yl)prop-2-yn-1-yl]-1H-pyrazole-4-carboxamide] | 10 nM | 26.3 µM | 27.2 µM |
| CN1CC[C@@H](Nc2cccc3c(CC(F)(F)F)c(C#CCNC(=O)c4cnn(C(C)(C)C)c4N)nn23)[C@@H](F)C1 [Compound 047] | 7 nM | 20.7 µM | 17.3 µM |
| CCn1ncc(C(=O)NCC#Cc2nn3c(N[C@@H]4CCN(C)C[C@@H]4F)cccc3c2CC(F)(F)F)c1N [Compound 261, 5-amino-1-ethyl-N-[3-(7-{[(3S,4R)-3-fluoro-1-methylpiperidin-4-yl]amino}-3-(2,2,2-trifluoroethyl)pyrazolo[1,5-a]pyridin-2-yl)prop-2-yn-1-yl]-1H-pyrazole-4-carboxamide] | 6 nM | 15.6 µM | 7.4 µM |
| CNC(=O)c1ccc(NCC#Cc2cc3c(N[C@@H]4CCN(C)C[C@@H]4F)cccc3n2CC(F)(F)F)c(OC)c1 [Control compound, reference compound] | 14 nM | 9.4 µM | 4.3 µM |
